This is an account of results in patent US20120245229A1, “METHOD FOR TREATING NEUROPATHIC PAIN” (priority 2009, published 2012).

One assay has as its system lamina II neurons. Nature of the assay: Patch clamp recording of sEPSCs in lamina II neurons of spinal cord slices. The format is cell-based, mice. How it is done: Spinal cord slice preparation. As previously reported^39, a portion of the lumbar spinal cord (L4-L5) was removed from young mice (3-4 week old) under urethane anesthesia (1.5-2.0 g/kg, i.p.) and transverse spinal cord slices were cut (600 μm) on a vibrating microslicer. The slices were perfused with Kreb's solution (8 ml/min) for >2 h prior to experiments. Some slices were stimulated with TNF-α (10 ng/ml, 5 min), the slices were fixed with 4% paraformaldehyde for 1 h, and processed pERK immunohistochemistry using thin sections (15 μm)^13.
Patch clamp recordings in spinal slices. Whole cell patch-clamp recordings were performed in lamina II neurons in voltage clamp mode^39. After establishing the whole-cell configuration, neurons were held at the holding potentials of −70 mV for recording spontaneous excitatory postsynaptic current (sEPSC). NMDA-induced currents were recorded by bath application of NMDA (50 μM, Sigma) at the holding potential of −50 mV. Membrane currents were amplified with an Axopatch 200A amplifier (Axon Instruments) in voltage-clamp mode. pCLAMP 6 was used and Mini Analysis (Synaptosoft Inc.) software to store and analyze the data. Those cells showing >5% changes from the baseline levels were reagrded as responding ones^24.
Resolvins were also used for intraplantar injection. RvD1 or RvE1 was injected into the plantar surface of a hindapaw [20 ng, 20 μl , in 1% ethanol (Supplementary FIG. 5a, 5b) or in 10% ethanol (FIG. 2e, Supplementary FIG. 1d)]. DRG cultures were incubated with RvE1 (10 ng/ml, 0.1% ethanol in culture medium) and perfused spinal cord slices with RvE1 (1 ng/ml, in 0.01% ethanol and Kreb's solution).
Perfusion of spinal cord slices: Spinal cord slices were incubated with chemerin (100 ng/ml, in Kreb's solution), TNF-α (10 ng/ml, in Kreb's solution), capsaicin (100 nM, in 0.01% DMSO and Kreb's solution), TRPV1 antagonist capsazepine (Sigma, 10 μM, in 0.01% DMSO and Kreb's solution), pertussix toxin (0.5 μg/ml, in Kreb's solution), and MEK inhibitor PD98059 and U0126 (CalBiochem, 1 μM, in 0.01% DMSO and Kreb's solution). For pertussix toxin treatment, spinal cord slices were incubated with the toxin for 3 h before stimulation.
On the technique in general: In patch-clamp work, channel activity is measured electrically.

Assay [1] concerns phosphorylation of ERK (pERK). The assay can be described thus: ERK phosphorylation (pERK) in cultured DRG neurons. The following applies: dissociated DRG neurons; RvE1 10 ng/ml; TNF-α 10 ng/ml; capsaicin 500 nM. The format is cell-based, mice. How it is done:
Primary DRG culture. DRGs were aseptically removed from 4-week old mice and digested them first with collagenase (1.25 mg/ml)/dispase-II (2.4 units/ml) at 37° C. for 90 min then with 0.25% trypsin for 8 min at 37° C. DRG cells were mechanically dissociated with a flame polished Pasteur pipette in the presence of 0.05% DNAse I and plated these cells onto poly-D-lysine and laminin-coated slide chambers. DRG cells were grown in a neurobasal defined medium (with 2% B27 supplement, Invitrogen) in the presence of NGF (50 ng/ml) for 24 h and replaced the medium with NGF-free medium before stimulation. For immunocytochemistry, DRG cells were fixed with 4% paraformaldehyde for 30 min and incubated the cells with pERK primary antibody (rabbit, Cell signaling, 1:500) overnight.
Resolvins were also used for intraplantar injection. RvD1 or RvE1 was injected into the plantar surface of a hindapaw [20 ng, 20 μl , in 1% ethanol (Supplementary FIG. 5a, 5b) or in 10% ethanol (FIG. 2e, Supplementary FIG. 1d)]. […]
pERK immunocytochemistry in DRG neurons: DRG cells grown in slide chambers were fixed with 4% paraformaldehyde for 30 min and incubated with pERK primary antibody (Rabbit, Cell Signaling, 1:500) at 4° C. overnight. The stained cells were examined with a Nikon fluorescence microscope, and images in 3 randomly-selected optic fields from each chamber were captured with a CCD Spot camera. […]

Assay [2] has as its system CFA-induced mechanical allodynia. Nature of the assay: CFA-induced mechanical allodynia (von Frey paw withdrawal threshold). It counts as in vivo, mice. The following applies: intrathecal RvE1 3-100 ng, 3 d after CFA injection. On the procedure:
Animals and pain models. Adult CD1 mice (male, 25-32 g) were used for most experiments. Knockout mice were used lacking TNFR1/II (Tnfrsf1a/1b^−/−) and TRPV1 (Trpv1^−/−) and C57BL/6 wild-type control mice, all from Jackson, for some experiments. All animal procedures performed in this study were approved by the Harvard Medical Area Standing Committee on Animals. 20 μl of diluted formalin (5%), carrageenan (CRG, 1%), or complete Freund's adjuvant (CFA) were injected into the plantar surface of a hindpaw to produce acute, persistent, or chronic inflammatory pain, respectively. Postoperative pain was also produced through hindpaw incision^36 and neuropathic pain by ligation of the spinal nerve^37.
Behavioral analysis. Mice were habituated in the testing environment for two days and performed behavioral testing in a blinded manner. Formalin-evoked spontaneous inflammatory pain was assessed by measuring duration (seconds) animals spent on licking/flinching the affected paws every 5 min for 45 min. Capsaicin-induced spontaneous pain was aslo assessed for 10 min. […] It was determined the 50% paw withdrawal threshold using Dixon's up-down method^40. […] The percent maximal possible antinociceptive effect (% M.P.E) was calculated using the equation % M.P.E.=[(PL−BL2)/(BL1−BL2)]×100. […]

As to `CC[C@@H](O)/C=C/C=C\C[C@@H](O)/C=C/C=C/C=C\[C@@H](O)CCCC(=O)O` [RvE1, 5S,12R,18R-trihydroxyeicosapentaenoic acid], in the assay with lamina II neurons (PTX 0.5 μg/ml for 3 h before capsaicin stimulation), the “capsaicin-induced increases in sEPSC frequency after pretreatment with pertussis toxin” value is on record as “fails to inhibit”. Moreover, the “basal synaptic transmission (sEPSC)” value in the assay on lamina II neurons (RvE1 alone, 1 ng/ml perfusion) is “did not alter basal synaptic transmission”. In the assay on lamina II neurons (TNF-α 10 ng/ml, RvE1 1 ng/ml, capsazepine 10 μM), the “TNF-α-evoked sEPSC frequency increase” value was “blocked”. Besides, in the assay on lamina II neurons (capsaicin 100 nM, RvE1 1 ng/ml, chemerin 100 ng/ml, PD98059 and U0126 1 μM), the “capsaicin-evoked sEPSC frequency increase” value is on record as “completely blocked”. The “TNF-α- and capsaicin-elicited increases in phosphorylation of ERK (pERK)” value in assay [1] is reported as “abolished”. The CFA-induced mechanical allodynia entry in assay [2] was “reduces CFA-induced mechanical allodynia in a dose-dependent manner”.
